From patent US20240360165A1, “INHIBITORS OF CYCLIN DEPENDENT KINASE 7 (CDK7)” (Syros Pharmaceuticals, Inc., priority 2016, published 2024)
Where two headings read alike, the source gives them in different places.

Tests used:
CDK2/Cyclin E1 complex = CDK2/Cyclin E1 complex (Homo sapiens, UniProt P24941); assay: CDK2 inhibition assay (Caliper/LabChip EZ Reader kinase assay); assay type: biochemical; settings: Table 1; CDK2/Cyclin E1 0.5 nM, ATP 2 mM, 35 min at 27° C.
Description: (§1) Compounds of the invention were assayed for inhibition of CDK7, CDK9, CDK12, and CDK2 activity at Biortus Biosciences (Jiangyin, Jiangsu Province, P.R. of China) using kinase assays for each CDK developed with a Caliper/LabChip EZ Reader (Perkin Elmer, Waltham, MA).
(§2) Furthermore, the CDK9 inhibition assay used CDK9/Cyclin T1 complex (8 nM) and “5-FAM-CDK9tide” peptide substrate (2 μM, synthesized fluorophore-labeled peptide with the following sequence: 5-FAM-GSRTPMY-NH2 where 5-FAM is defined above and NH2 signifies a C-terminal amide) with 10 mM MgCl2 in the buffer composition listed above. […] Additionally, the CDK2 inhibition assay used CDK2/Cyclin E1 complex (0.5 nM) and “5-FAM-CDK7tide” ([…]) as defined above, with 2 mM MgCl2 in the buffer composition listed above.

CDK9/Cyclin T1 complex = CDK9/Cyclin T1 complex (Homo sapiens, UniProt P50750); assay: CDK9 inhibition assay (Caliper/LabChip EZ Reader kinase assay); assay type: biochemical; settings: Table 1; CDK9/Cyclin T1 8 nM, ATP 2 mM, 15 min at 27° C.
Description: as §1, §2

A673 cells = assay: Inhibition of proliferation of A673 cells (CyQUANT, 72 hour); assay type: cell-based, human; settings: A673 cells, 72 hour, CyQUANT, read-out: Inhibition of Proliferation of A673 Cells (calculated IC50)
Description: A673 cells are a cell line derived from human […] Ewing's sarcoma. Representative compounds of the invention were tested at different concentrations (from […]; 0.5 log serial dilutions) for their ability to inhibit the proliferation of A673 cells. Known CDK inhibitors dinaciclib or N-((1S,3R)-3-((5-chloro-4-(1H-indol-3-yl)pyrimidin-2-yl)amino)cyclohexyl)-5-((E)-4-(dimethylamino)but-2-enamido)picolinamide and triptolide were used as positive controls. Cells were grown in Dulbecco's Modified Eagle's Medium, +10% FBS+1 mM Sodium Pyruvate. The cells were cultured at 37° C. in a humidified chamber in the presence of 5% CO2. Proliferation assays were conducted over a 72 hour time period. CyQUANT® (Life Technologies, Chicago, IL USA) was used to assess the anti-proliferative effects of the compounds following manufacturer's directions and utilizing the reagents supplied with the CyQUANT® kit.

[1] = biological target: CDK7/Cyclin H/MAT1 complex (Homo sapiens, UniProt P50613); assay: CDK7 inhibition assay (Caliper/LabChip EZ Reader kinase assay); assay type: biochemical; settings: Table 1; CDK7/Cyclin H/MAT1 6 nM, ATP 2 mM, 35 min at 27° C.
Description: as §1, §2

[2] = biological target: T1, CDK12 (aa686-1082)/Cyclin K complex (Homo sapiens, UniProt Q9NYV4); assay: CDK12 inhibition assay (Caliper/LabChip EZ Reader kinase assay); assay type: biochemical; settings: Table 1; CDK12 (aa686-1082)/Cyclin K 50 nM, ATP 2 mM, 3 hr at 27° C.
T1 construct: CDK12 (aa686-1082)/Cyclin K complex
Description: as §1, §2

T1 sequence (Q9NYV4 686-1082, species assumed): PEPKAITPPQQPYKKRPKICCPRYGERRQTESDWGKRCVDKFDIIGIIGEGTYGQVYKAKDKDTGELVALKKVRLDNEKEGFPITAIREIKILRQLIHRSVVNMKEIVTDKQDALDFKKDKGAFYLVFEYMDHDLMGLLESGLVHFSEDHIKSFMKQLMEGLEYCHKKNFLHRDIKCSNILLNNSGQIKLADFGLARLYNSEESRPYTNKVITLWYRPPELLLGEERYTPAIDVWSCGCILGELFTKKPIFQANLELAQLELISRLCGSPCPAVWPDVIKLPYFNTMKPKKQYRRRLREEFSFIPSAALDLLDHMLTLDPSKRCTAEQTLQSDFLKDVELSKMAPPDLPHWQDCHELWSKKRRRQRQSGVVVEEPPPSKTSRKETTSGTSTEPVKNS
T1 sequence (O75909 whole entry partner, species assumed, the tested form may be a part): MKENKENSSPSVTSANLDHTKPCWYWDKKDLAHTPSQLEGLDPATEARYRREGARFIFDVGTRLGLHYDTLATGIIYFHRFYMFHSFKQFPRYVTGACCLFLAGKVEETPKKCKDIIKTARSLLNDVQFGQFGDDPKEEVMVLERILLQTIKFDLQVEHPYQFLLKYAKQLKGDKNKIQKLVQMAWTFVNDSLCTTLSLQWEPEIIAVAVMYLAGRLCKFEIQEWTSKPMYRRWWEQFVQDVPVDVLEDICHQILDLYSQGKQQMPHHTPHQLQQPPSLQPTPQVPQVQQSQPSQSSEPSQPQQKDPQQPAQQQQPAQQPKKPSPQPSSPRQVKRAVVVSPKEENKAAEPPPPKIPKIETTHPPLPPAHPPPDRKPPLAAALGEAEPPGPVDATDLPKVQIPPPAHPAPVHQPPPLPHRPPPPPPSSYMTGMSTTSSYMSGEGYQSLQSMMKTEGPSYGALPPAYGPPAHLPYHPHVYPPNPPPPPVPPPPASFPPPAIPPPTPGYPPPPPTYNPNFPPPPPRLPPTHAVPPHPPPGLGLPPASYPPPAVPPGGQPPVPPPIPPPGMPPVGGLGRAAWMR
Chain of CDK7/Cyclin H/MAT1 complex (P50613 whole entry, species assumed): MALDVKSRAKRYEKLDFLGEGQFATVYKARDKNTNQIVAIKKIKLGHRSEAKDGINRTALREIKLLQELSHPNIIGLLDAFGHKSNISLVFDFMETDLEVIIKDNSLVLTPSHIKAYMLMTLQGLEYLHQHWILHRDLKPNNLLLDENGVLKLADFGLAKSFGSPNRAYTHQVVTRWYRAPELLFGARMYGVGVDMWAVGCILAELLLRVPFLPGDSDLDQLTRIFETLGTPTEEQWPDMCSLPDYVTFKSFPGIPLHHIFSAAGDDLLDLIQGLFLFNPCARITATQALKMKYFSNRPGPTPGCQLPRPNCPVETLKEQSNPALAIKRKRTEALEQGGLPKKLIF
Chain of CDK7/Cyclin H/MAT1 complex (P51946 whole entry partner, species assumed): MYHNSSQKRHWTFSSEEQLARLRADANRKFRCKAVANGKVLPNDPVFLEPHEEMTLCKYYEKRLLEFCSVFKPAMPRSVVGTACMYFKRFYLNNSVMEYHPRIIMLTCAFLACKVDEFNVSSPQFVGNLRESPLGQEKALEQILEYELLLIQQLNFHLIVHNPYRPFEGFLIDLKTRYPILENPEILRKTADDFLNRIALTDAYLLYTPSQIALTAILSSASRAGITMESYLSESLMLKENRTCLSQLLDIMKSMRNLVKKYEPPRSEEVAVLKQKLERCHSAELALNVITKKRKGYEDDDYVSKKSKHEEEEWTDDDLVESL
Chain of CDK7/Cyclin H/MAT1 complex (P51948 whole entry partner, species assumed): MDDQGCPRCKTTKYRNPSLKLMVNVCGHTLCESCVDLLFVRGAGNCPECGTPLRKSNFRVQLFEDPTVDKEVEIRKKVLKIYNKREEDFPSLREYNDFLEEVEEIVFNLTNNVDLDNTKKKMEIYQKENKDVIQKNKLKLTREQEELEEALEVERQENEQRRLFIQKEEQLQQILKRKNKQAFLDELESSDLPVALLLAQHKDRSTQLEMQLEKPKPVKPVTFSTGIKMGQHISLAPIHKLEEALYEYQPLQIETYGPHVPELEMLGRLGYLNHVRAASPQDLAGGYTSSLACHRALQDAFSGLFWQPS
Chain of CDK9/Cyclin T1 complex (P50750 whole entry, species assumed): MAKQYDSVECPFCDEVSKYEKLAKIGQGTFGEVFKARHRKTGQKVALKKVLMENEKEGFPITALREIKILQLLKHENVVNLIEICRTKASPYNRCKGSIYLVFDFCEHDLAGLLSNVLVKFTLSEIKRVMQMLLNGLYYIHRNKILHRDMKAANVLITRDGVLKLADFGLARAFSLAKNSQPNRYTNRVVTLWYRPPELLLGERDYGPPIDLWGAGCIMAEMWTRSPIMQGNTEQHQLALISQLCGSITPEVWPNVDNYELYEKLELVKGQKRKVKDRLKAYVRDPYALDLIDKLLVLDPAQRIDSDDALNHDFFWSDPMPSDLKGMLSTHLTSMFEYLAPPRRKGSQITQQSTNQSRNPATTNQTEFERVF
Chain of CDK9/Cyclin T1 complex (O60563 whole entry partner, species assumed): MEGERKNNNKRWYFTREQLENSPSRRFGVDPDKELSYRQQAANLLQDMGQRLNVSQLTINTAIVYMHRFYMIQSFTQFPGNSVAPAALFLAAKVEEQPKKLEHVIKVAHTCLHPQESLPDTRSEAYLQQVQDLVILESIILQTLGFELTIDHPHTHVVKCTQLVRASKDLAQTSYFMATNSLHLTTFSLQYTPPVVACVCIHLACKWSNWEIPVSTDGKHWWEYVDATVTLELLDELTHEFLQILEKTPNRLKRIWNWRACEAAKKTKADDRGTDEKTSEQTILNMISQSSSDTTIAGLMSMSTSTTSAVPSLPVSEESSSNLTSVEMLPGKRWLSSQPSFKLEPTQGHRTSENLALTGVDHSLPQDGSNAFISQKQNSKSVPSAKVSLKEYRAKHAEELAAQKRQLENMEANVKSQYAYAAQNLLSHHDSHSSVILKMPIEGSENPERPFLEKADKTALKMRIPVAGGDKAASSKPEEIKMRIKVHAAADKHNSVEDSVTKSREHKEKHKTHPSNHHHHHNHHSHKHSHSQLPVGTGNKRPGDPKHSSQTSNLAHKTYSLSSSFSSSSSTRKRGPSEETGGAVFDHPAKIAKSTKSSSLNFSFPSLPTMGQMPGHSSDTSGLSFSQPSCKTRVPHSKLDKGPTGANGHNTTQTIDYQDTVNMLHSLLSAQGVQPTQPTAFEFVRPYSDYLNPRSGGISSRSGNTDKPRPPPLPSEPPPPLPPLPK

Row | Structure (SMILES) | IC50 (CDK2/Cyclin E1 complex) | IC50 (CDK9/Cyclin T1 complex) | IC50 [1] | IC50 [2] | IC50 (A673 cells) | IC50 (A673 cells; Homo sapiens) | IC50 (A673 cells; Homo sapiens, A673, 72 h)
1 | FC(F)(F)c1cnc(N[C@H]2CCCNC2)nc1-c1c[nH]c2cc(-c3cc[nH]n3)ccc12 [Compound 291, N-[(3S)-3-piperidyl]-4-[6-(1H-pyrazol-3-yl)-1H-indol-3-yl]-5-(trifluoromethyl) pyrimidin-2-amine] | > 5000 nM | 200 to 5000 nM | 20 to 200 nM | 200 to 5000 nM | 20 to 200 nM | – | –
2 | CCOP(C)(=O)c1cccc2c(-c3nc(N[C@H]4CCCNC4)ncc3C(F)(F)F)c[nH]c12 (some centres unmarked) [Compound 179] | 200 to 5000 nM | 200 to 5000 nM | < 20 nM | 200 to 5000 nM | – | < 20 nM | –
3 | COc1cnc(N[C@H]2CCCNC2)nc1-c1c[nH]c2ccccc12 [Compound 189] | > 5000 nM | > 5000 nM | 200 to 5000 nM | > 5000 nM | 200 to 5000 nM | – | –
4 | CCOP(=O)(OCC)c1cccc2c(-c3nc(N[C@H]4CCCNC4)ncc3C(F)(F)F)c[nH]c12 [Compound 168] | > 5000 nM | > 5000 nM | 200 to 5000 nM | > 5000 nM | – | 200 to 5000 nM | –
5 | Clc1cnc(N[C@@H]2CN3CCC2CC3)nc1-c1c[nH]c2ccccc12 [Compound 131, (S)—N-(5-chloro-4-(1H-indol-3-yl)pyrimidin-2-yl)quinuclidin-3-amine] | > 5000 nM | > 5000 nM | > 5000 nM | > 5000 nM | – | – | 200 to 5000 nM
6 | C#Cc1cnc(N[C@H]2CCCNC2)nc1-c1cn(C)c2ccccc12 [Compound 195] | > 5000 nM | > 5000 nM | 200 to 5000 nM | > 5000 nM | 20 to 200 nM | – | –
7 | CNC(=O)[C@@H]1CNC[C@@H](Nc2ncc(C(F)(F)F)c(-c3c[nH]c4ccccc34)n2)C1 [Compound 256] | 200 to 5000 nM | > 5000 nM | 20 to 200 nM | 200 to 5000 nM | 200 to 5000 nM | – | –
8 | CC(C)C1CC[C@H](Nc2ncc(C(F)(F)F)c(-c3c[nH]c4ccccc34)n2)CN1 (mixture of isomers) [Compound 257] | > 5000 nM | > 5000 nM | 20 to 200 nM | > 5000 nM | – | – | 200 to 5000 nM
9 | N#Cc1cn(-c2ccc3c(-c4nc(NC5CCCNC5)ncc4C(F)(F)F)c[nH]c3c2)cn1 (centres unmarked) [Compound 249] | > 5000 nM | > 5000 nM | < 20 nM | 200 to 5000 nM | – | – | 20 to 200 nM
10 | CC1(C)CCNC[C@@H]1Nc1ncc(C(F)(F)F)c(-c2c[nH]c3ccccc23)n1 (single isomer, unassigned) [Compound 209] | > 5000 nM | > 5000 nM | 200 to 5000 nM | > 5000 nM | – | – | 20 to 200 nM
11 | CC(C)(O)CCc1cccc2c(-c3nc(N[C@H]4CCCNC4)ncc3C(F)(F)F)c[nH]c12 [Compound 191] | 200 to 5000 nM | 200 to 5000 nM | < 20 nM | 200 to 5000 nM | < 20 nM | – | –
12 | OC1CC=C(c2cccc3c(-c4nc(N[C@H]5CCCNC5)ncc4C(F)(F)F)c[nH]c23)CC1 (some centres unmarked) [Compound 198] | 200 to 5000 nM | 200 to 5000 nM | < 20 nM | 200 to 5000 nM | < 20 nM | – | –

Second part, led by results:

Row | IC50 (CDK2/Cyclin E1 complex) | IC50 (CDK9/Cyclin T1 complex) | IC50 [1] | IC50 [2] | Structure (SMILES) | IC50 (A673 cells) | IC50 (A673 cells; Homo sapiens) | IC50 (A673 cells; Homo sapiens, A673, 72 h)
13 | 200 to 5000 nM | 200 to 5000 nM | 20 to 200 nM | 200 to 5000 nM | COCCN1CCC[C@H](Nc2ncc(Cl)c(-c3c[nH]c4ccccc34)n2)C1 [Compound 149] | 20 to 200 nM | – | –
14 | 200 to 5000 nM | 200 to 5000 nM | < 20 nM | 200 to 5000 nM | Cc1n[nH]cc1-c1ccc2c(-c3nc(N[C@H]4CCCNC4)ncc3C(F)(F)F)c[nH]c2c1 [Compound 229, 4-[6-(3-methyl-1H-pyrazol-4-yl)-1H-indol-3-yl]-N-[(3S)-3-piperidyl]-5-(trifluoromethyl) pyrimidin-2-amine] | – | – | < 20 nM
15 | 200 to 5000 nM | 200 to 5000 nM | 20 to 200 nM | 200 to 5000 nM | CC(C)(O)Cn1cc(-c2ccc3c(-c4nc(N[C@H]5CCCNC5)ncc4C(F)(F)F)c[nH]c3c2)cn1 [Compound 214, 2-methyl-1-[4-[3-[2-[[(3S)-3-piperidyl]amino]-5-(trifluoromethyl)pyrimidin-4-yl]-1H-indol-6-yl]pyrazol-1-yl] propan-2-ol] | – | – | 20 to 200 nM
16 | 200 to 5000 nM | 200 to 5000 nM | < 20 nM | 200 to 5000 nM | Cc1cn(-c2cccc3c(-c4nc(N[C@H]5CCCNC5)ncc4C(F)(F)F)c[nH]c23)cn1 [Compound 172] | – | – | < 20 nM
17 | > 5000 nM | > 5000 nM | 20 to 200 nM | > 5000 nM | FC(F)(F)c1cnc(NC2CNCc3ccccc32)nc1-c1c[nH]c2ccccc12 (centres unmarked) [Compound 215] | – | – | 200 to 5000 nM
18 | 200 to 5000 nM | 200 to 5000 nM | < 20 nM | 200 to 5000 nM | Cc1nc(-c2ccc3c(-c4nc(N[C@H]5CCCNC5)ncc4C(F)(F)F)c[nH]c3c2)n[nH]1 [Compound 235] | – | – | 200 to 5000 nM
19 | > 5000 nM | > 5000 nM | 200 to 5000 nM | 200 to 5000 nM | CC(C)C1CCC(Nc2ncc(C(F)(F)F)c(-c3c[nH]c4ccccc34)n2)CN1 (centres unmarked) [Compound 260] | – | – | 200 to 5000 nM
20 | 200 to 5000 nM | 20 to 200 nM | < 20 nM | 20 to 200 nM | Fc1cc2[nH]cc(-c3nc(N[C@H]4CCCNC4)ncc3Cl)c2cc1F [Compound 111] | – | – | 20 to 200 nM
21 | 200 to 5000 nM | 200 to 5000 nM | < 20 nM | 200 to 5000 nM | N#Cc1cc2[nH]cc(-c3nc(N[C@H]4CCCNC4)ncc3C(F)(F)F)c2cc1F [Compound 197, 5-fluoro-3-[2-[[(3S)-3-piperidyl]amino]-5-(trifluoromethyl)pyrimidin-4-yl]-1H-indole-6-carbonitrile] | – | – | < 20 nM
22 | 200 to 5000 nM | 200 to 5000 nM | < 20 nM | 200 to 5000 nM | FC(F)(F)c1cnc(N[C@H]2CCCNC2)nc1-c1c[nH]c2cc(-c3ccncc3)ccc12 [Compound 224, N-[(3S)-3-piperidyl]-4-[6-(4-pyridyl)-1H-indol-3-yl]-5-(trifluoromethyl) pyrimidin-2-amine] | – | – | 20 to 200 nM
23 | 200 to 5000 nM | 200 to 5000 nM | 20 to 200 nM | 200 to 5000 nM | FC(F)(F)c1cnc(NC2C3CCC2NC3)nc1-c1c[nH]c2ccccc12 (centres unmarked) [Compound 222, N-[4-(1H-indol-3-yl)-5-(trifluoromethyl)pyrimidin-2-yl]-3-azabicyclo [2.2.1]heptan-7-amine] | – | – | 20 to 200 nM
24 | 200 to 5000 nM | 200 to 5000 nM | < 20 nM | 200 to 5000 nM | FC(F)(F)c1cnc(N[C@H]2CCC3(CC3)NC2)nc1-c1c[nH]c2ccccc12 [Compound 212] | – | – | < 20 nM
25 | 200 to 5000 nM | 200 to 5000 nM | < 20 nM | 200 to 5000 nM | CS(=O)(=O)Cc1ccc2c(-c3nc(N[C@H]4CCCNC4)ncc3C(F)(F)F)c[nH]c2c1 [Compound 219, 4-[6-(methylsulfonylmethyl)-1H-indol-3-yl]-N-[(3S)-3-piperidyl]-5-(trifluoromethyl) pyrimidin-2-amine] | – | – | 20 to 200 nM
26 | 200 to 5000 nM | 200 to 5000 nM | < 20 nM | 200 to 5000 nM | Cc1c(-c2ccc3c(-c4nc(N[C@H]5CCCNC5)ncc4C(F)(F)F)c[nH]c3c2)cnn1C [Compound 227, 4-[6-(1,5-dimethylpyrazol-4-yl)-1H-indol-3-yl]-N-[(3S)-3-piperidyl]-5-(trifluoromethyl) pyrimidin-2-amine] | – | – | 20 to 200 nM
27 | 200 to 5000 nM | 200 to 5000 nM | < 20 nM | 200 to 5000 nM | CC[C@H]1CC[C@H](Nc2ncc(C(F)(F)F)c(-c3c[nH]c4ccccc34)n2)CN1 [Compound 217] | – | – | 20 to 200 nM
28 | 200 to 5000 nM | 200 to 5000 nM | < 20 nM | 200 to 5000 nM | CCc1cnc(N[C@H]2CCCNC2)nc1-c1n[nH]c2c(F)cccc12 [Compound 143, (S)-5-ethyl-4-(7-fluoro-1H-indazol-3-yl)-N-(piperidin-3-yl)pyrimidin-2-amine] | – | – | < 20 nM
